Experimental data taken from patent US8299092B2, “Derivatives of 2-phenyl-3-hydroxyquinoline-4(1H)-one and methods of their preparation and utilization” (Univerzita Palackeho, priority 2006, dated 2012).
Read-outs that look alike come from different tables or passages of the source.

Tests used:
[1] = system: CEM (T-lymphoblastic leukaemia); assay: MTT cytotoxic test, CEM; type: cell-based; details: CEM cells, mean (x), read-out: Cytotoxic and antiproliferation activity MTT test (IC50, μM) CEM x
Source text: (§1) In order to evaluate antitumour activity of the new prepared substances in vitro, we used the MTT cytotoxic test on cell lines derived from normal tissues and tumours. In particular, they included the NIH 3T3 (mouse fibroblasts), K562 (human myeloid leukaemia), K562-tax (human myeloid leukaemia resistant to taxol and the overexpressing protein of the PgP multiple drug resistance), CEM (T-lymphoblastic leukaemia), CEM-DNR-bulk (T-lymphoblastic leukaemia resistant to doxorubicine, lacking the expression of target gene for inhibitors of topoisomerase II alpha) and the line A549 (human lung adenocarcinoma).

[2] = system: CEM-DNR-bulk (T-lymphoblastic leukaemia resistant to doxorubicine); assay: MTT cytotoxic test, CEM-DNR-bulk; type: cell-based; details: CEM-DNR-BULK cells, mean (x); read-out: Cytotoxic and antiproliferation activity MTT test (IC50, μM) CEM-DNR-BULK x
Source text: as §1

[3] = system: K562 (human myeloid leukaemia); assay: MTT cytotoxic test, K562; type: cell-based; details: K 562 cells, mean (x), read-out: Cytotoxic and antiproliferation activity MTT test (IC50, μM) K 562 x
Source text: as §1

[4] = system: K562-tax (human myeloid leukaemia resistant to taxol); assay: MTT cytotoxic test, K562-tax; type: cell-based; details: K562-TAX cells, mean (x), read-out: Cytotoxic and antiproliferation activity MTT test (IC50, μM) K562-TAX x
Source text: as §1

[5] = system: A549 (human lung adenocarcinoma); assay: MTT cytotoxic test, A549; type: cell-based; details: A 549 cells, mean (x), read-out: Cytotoxic and antiproliferation activity MTT test (IC50, μM) A 549 x
Source text: as §1

[6] = system: concavaline A-stimulated human lymphocytes; assay: MTT test, inhibition of lymphocyte activation with ConA; type: cell-based; details: 5 μg/ml, mean (x)
Source text: The proliferation response of isolated lymphocytes to polyclonal mitogens belongs to the most important parameters of specific cell immunity. Most of the human lymphocytes occur in quiet state. Antigens or polyclonal mitogens, however, are capable of activating lymphatic cells, which is accompanied by dramatic changes of their cell metabolism (enhanced mitochondrial activity, protein and nucleic acid synthesis, formation of blastic cells and proliferations). Substances having the capability to suppress such processes show immunosuppressive activity in clinical conditions and, therefore, these tests can be used for screening tests of immunosuppressive activity in vitro. On this account, we use the above-mentioned MTT test, which evaluates both the survival and the proliferation activity of quiet vs. polyclonal-mitogen (concavaline A, 5 μg/ml)-stimulated human lymphocytes to screen the immunosuppressive activity of new substances (Jegorov et al., J. Mass. Spetrom., 2006).

SMILES	IC50 [1] [µM]	IC50 [2] [µM]	IC50 [3] [µM]	IC50 [4] [µM]	IC50 [5] [µM]	IC50 [6] [µM]	also measured
C/C=C/CCSc1ccc(-c2[nH]c3ccccc3c(=O)c2O)cc1[N+](=O)[O-]	2.1	3.2	9.3	5.2	4.3	–	–
O=CNCCn1cnc2cc(-c3[nH]c4ccccc4c(=O)c3O)ccc21 [—CH2CH2NHCHO]	–	–	–	–	–	1.1	–
O=c1c(O)c(-c2ccc(NCCCCO)c([N+](=O)[O-])c2)[nH]c2ccccc12 [—NH(CH2)4OH]	0.7	15.1	1.8	8.6	5.7	1.1	–
O=c1c(O)c(-c2ccc(N3CCN(CCOCCO)CC3)c([N+](=O)[O-])c2)[nH]c2ccccc12 [Example 5, 3-Hydroxy-2-(4-{4-[2-(2-hydroxyethoxy)ethyl]piperazine-1-yl}-3-nitrophenyl)quinoline-4(1H)-one]	–	–	–	–	–	–	melting point: 203 to 204 °C
CCCN(CCC)c1ccc(-c2[nH]c3ccccc3c(=O)c2O)cc1[N+](=O)[O-] [—N(CH2CH2CH3)2]	0.7	2.2	0.6	1.2	1.1	0.9	–
CCNc1ccc(-c2[nH]c3ccccc3c(=O)c2O)cc1[N+](=O)[O-] [Example 6, 2-[4-(Ethylamino)-3-nitrophenyl]-3-hydroxyquinoline-4(1H)-one]	–	–	–	–	–	–	melting point: 282 to 285 °C
O=c1c(O)c(-c2ccc(NCCCO)c([N+](=O)[O-])c2)[nH]c2ccccc12 [—NH(CH2)3OH, 3-Hydroxy-2-{4-[(3-hydroxypropyl)amino]-3-nitrophenyl}quinoline-4(1H)-one]	–	46.3	–	–	–	–	IC50 ([1]; Homo sapiens, CCRF-CEM): 1.4 µM; IC50 ([3]; Homo sapiens, K562): 6.2 µM; IC50 ([4]; Homo sapiens): 12.9 µM; IC50 ([5]; Homo sapiens, A549): 12.4 µM; IC50 ([6]; Lymphocyte): 0.8 µM; melting point: 233 to 236 °C
O=c1c(O)c(-c2ccc3c(c2)ncn3CC(F)(F)F)[nH]c2ccccc12	–	–	–	–	–	4.2	–
O=c1c(O)c(-c2ccc3c(c2)ncn3CCSCCO)[nH]c2ccccc12 [—(CH2)2S(CH2)2OH]	0.8	2.2	3.1	4.5	3.6	–	–
O=c1c(O)c(-c2ccc(N3CCN(CCO)CC3)c([N+](=O)[O-])c2)[nH]c2ccccc12	–	–	–	–	–	–	melting point: 218 to 221 °C
O=c1c(O)c(-c2ccc(-n3ccnc3)c([N+](=O)[O-])c2)[nH]c2ccccc12 [Example 8, 3-Hydroxy-2-[4-(1H-imidazole-1-yl)-3-nitrophenyl]quinoline-4(1H)-one]	–	–	–	–	–	–	melting point: 278 to 280 °C
O=c1c(O)c(-c2ccc(N(CCO)CCO)c([N+](=O)[O-])c2)[nH]c2ccccc12 [—N(CH2CH2OH)2]	0.3	143	187	198	224	0.9	–
O=c1c(O)c(-c2ccc(F)c([N+](=O)[O-])c2)[nH]c2ccccc12 [F]	–	–	–	–	–	3.8	–
CCN(CC)CCn1cnc2cc(-c3[nH]c4ccccc4c(=O)c3O)ccc21 [—(CH2)2N(C2H5)2]	5.2	71.2	2.1	6.5	3.5	–	–
CCN(C)c1ccc(-c2[nH]c3ccccc3c(=O)c2O)cc1[N+](=O)[O-] [—N(CH3)(CH2CH3)]	1.7	129	0.7	163	66.5	5.7	–
CCCCCCn1cnc2cc(-c3[nH]c4ccccc4c(=O)c3O)ccc21 [—(CH2)5CH3]	2.8	54	8.5	35	44.3	–	–
CC(C)Nc1ccc(-c2[nH]c3ccccc3c(=O)c2O)cc1[N+](=O)[O-] [—NHCH(CH3)2]	1.6	6.8	2.1	3	2.8	4.8	–
O=c1c(O)c(-c2ccc(NCCCCCO)c([N+](=O)[O-])c2)[nH]c2ccccc12 [—NH(CH2)5OH]	1	10.8	2.8	5.7	5.3	0.6	–
O=c1c(O)c(-c2ccc(NCCO)c([N+](=O)[O-])c2)[nH]c2ccccc12 [—NH(CH2)2OH]	2.7	98.8	7.3	44.9	46.8	3.8	–
O=c1c(O)c(-c2ccc(Cl)c([N+](=O)[O-])c2)[nH]c2ccccc12 [Cl, 2-(4-Chlorine-3-nitrophenyl)-3-hydroxyquinoline-4(1H)-one]	2.6	3.5	2.3	3.2	4.2	–	–
O=c1c(O)c(-c2ccc(Sc3ccccc3)c([N+](=O)[O-])c2)[nH]c2ccccc12 [Example 7, 3-Hydroxy-2-[3-nitro-4-(phenylthio)phenyl]quinoline-4(1H)-one]	–	–	–	–	–	–	melting point: 322 to 324 °C
